According to patent publication US20220017541A1, “INHIBITORS OF ARGINASE” (Black Belt Tx Ltd, priority 2018, published 2022):

Key:
recombinant human ARG1 = biological target: T1, recombinant human ARG1 (Homo sapiens, UniProt P05089); assay: Arginase enzymatic assay in vitro, recombinant human ARG1 (colorimetric urea detection); format: biochemical; conditions: recombinant human arginase 1; read-out: IC50 Inh rhARG1
T1 construct: purchased R&D System 5868-AR-010
T1 sequence (P05089 1-322): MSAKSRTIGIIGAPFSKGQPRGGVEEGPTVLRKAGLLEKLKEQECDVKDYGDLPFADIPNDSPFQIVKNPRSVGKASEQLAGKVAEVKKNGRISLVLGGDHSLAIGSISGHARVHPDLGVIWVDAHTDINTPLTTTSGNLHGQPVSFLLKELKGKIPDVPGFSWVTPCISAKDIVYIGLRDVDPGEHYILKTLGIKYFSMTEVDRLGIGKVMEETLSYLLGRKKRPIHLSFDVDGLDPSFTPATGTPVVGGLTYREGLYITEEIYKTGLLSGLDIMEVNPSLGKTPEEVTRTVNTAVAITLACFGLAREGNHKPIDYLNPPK
Source text: (§1) Arginase catalyzes the hydrolysis of L-arginine into L-ornithine and urea. Urea amount produced by this reaction can be detected using a colorimetric assay and used as an indirect measurement of arginase activity. An adapted protocol from (Baggio, R., et al., J Pharmacol Exp Ther, 1999. 290(3): p. 1409-16) was used for the testing the ability of exemplary compounds of the invention to inhibit arginase enzymes from a variety of sources including recombinant human ARG1 and 2, lysates of human red blood cells (RBC) and intact murine macrophages, as described below.
(§2) Compounds of the invention were prepared from powder as 10 mM stock solutions in DMSO and stored in presence of N2 neutral atmosphere at −80° C. For IC50 determination and just before the assay, exemplary compounds were successively diluted to get the following concentrations: 210, 70, 21, 7, 2.1, 0.7, 0.21, 0.07, 0.021, 0.007, 0.0021 and 0.0007 μM (i.e., final concentrations in the wells of 30, 10, 3, 1, 0.3, 0.1, 0.03, 0.01, 0.003, 0.001, 0.0003, 0.0001 μM).
(§3) Assays were run in clear flat bottom 96-well plates (Nunclon, Cat. No. #167008) adding in each well the following solutions in this order: (1) 10 μl of Tris-HCl solution supplemented with 0.1% bovine serum albumin (BSA) containing 1.563 μg/ml recombinant human ARG1 (R&D System, Cat. No. #5868-AR-010), (2) 30 μl of Tris-HCl buffer containing 10 mM MnCl2 and (3) 10 μL of a pre-dilution of each test article or DMSO (vehicle). Compounds were allowed to interact with the enzyme-cofactor complex pre-incubating the plate at 37° C. for 30 min. To start the reaction, 20 μl of 50 mM L-arginine (Sigma Aldrich Cat. #A5006-100G) were added to each well in exception of the blank reaction (see below). All reactions were allowed to happen for 1 h at 37° C. To detect the urea production, reactions were stopped by adding 200 μl of a mixture of reagent A (4 mM o-phthalaldehyde in 50 mM Boric Acid, 1 M Sulfuric Acid, 0.03% Brij-35 (w/v)) and reagent B (4 mM N-(1-naphthyl)ethylenediamine in 50 mM Boric Acid, 1 M Sulfuric Acid, 0.03% Brij-35 (w/v)) in equal proportion. Color product was developed for 1 h at room temperature (RT) protected from light and then absorbance at 520 nm was measured using a Multifunction Microplate Reader (Synergy 4, Bioteck). Blank reactions were carried out by adding the L-arginine substrate only after the addition of mixture A-B. All reactions were carried out in duplicates.
(§4) The inhibition of urea production was calculated subtracting the absorbance from the blank reaction (zero enzymatic urea production) to the absorbance from all reactions and it was expressed as the percentage of the absorbance from the reaction containing the test article with respect to the absorbance from vehicle reaction (maximum of urea production).

recombinant human ARG2 = biological target: T2, recombinant human ARG2 (Homo sapiens, UniProt P78540); assay: Arginase enzymatic assay in vitro, recombinant human ARG2 (colorimetric urea detection); format: biochemical; conditions: recombinant human arginase 2; read-out: IC50 Inh rhARG2
T2 construct: purchased BPS Bioscience 71659
T2 sequence (P78540 23-354): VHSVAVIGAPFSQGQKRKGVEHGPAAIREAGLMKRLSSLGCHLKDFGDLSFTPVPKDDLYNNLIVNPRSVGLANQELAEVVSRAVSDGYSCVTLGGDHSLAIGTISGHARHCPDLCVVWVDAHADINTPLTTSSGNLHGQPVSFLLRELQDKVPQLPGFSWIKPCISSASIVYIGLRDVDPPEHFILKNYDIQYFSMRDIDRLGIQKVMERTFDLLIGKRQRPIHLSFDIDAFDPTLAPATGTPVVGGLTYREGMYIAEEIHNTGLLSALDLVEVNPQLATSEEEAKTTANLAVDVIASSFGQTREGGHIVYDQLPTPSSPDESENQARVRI
Source text: as §1, §2, §3, §4
For testing inhibitory activity over recombinant human arginase II, 10 μl of Tris-HCl solution supplemented with 0.1% BSA containing 1.5 μg/ml recombinant human ARG2 (BPS Bioscience, Cat. No. #71659) was used instead of ARG1.

[1] = biological target: T3, arginase activity in intact BMM-M2 cells (Mus musculus, UniProt Q61176); assay: Cell-based arginase assay: urea production by cultured BMM-M2 cells; conditions: 10 μM test compound, 24 h; for inhibition at 10 µM: read-out: Inh. urea production @10 μM (%)
T3 construct: endogenous in cells; host or cells: bone-marrow derived macrophages from male C57BL/6 mice, polarised to M2 with IL-4
T3 sequence (Q61176 1-323): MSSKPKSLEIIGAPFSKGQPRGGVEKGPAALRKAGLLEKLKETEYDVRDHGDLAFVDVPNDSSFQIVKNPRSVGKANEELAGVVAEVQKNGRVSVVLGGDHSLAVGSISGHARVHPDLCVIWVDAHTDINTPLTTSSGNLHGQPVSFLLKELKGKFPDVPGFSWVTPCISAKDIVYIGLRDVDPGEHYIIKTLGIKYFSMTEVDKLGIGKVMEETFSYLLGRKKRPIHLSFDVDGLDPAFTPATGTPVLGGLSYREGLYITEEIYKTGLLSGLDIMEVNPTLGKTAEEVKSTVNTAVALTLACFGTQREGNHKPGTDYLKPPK
Protocol: Murine bone-marrow derived macrophages (BMM) represent a convenient in vitro model that enables differentiation of these cells towards M1 or M2 macrophages. Briefly, male C57BL/6 mice 7-8 weeks old were euthanized by carbon dioxide asphyxiation. Femur and tibiae bones were removed under aseptic conditions and collected in a plate containing sterile ice-cold PBS 1×. After sterilization of bones in 70% ethanol during 1 min, bones were placed into a clean Petri dish containing fresh sterile ice-cold PBS 1×. The ends of each bone were cut and the marrow cavity was flushed using forceps and syringes filled with pre-warmed complete α-MEM growing medium (α-MEM without red phenol (Life Technologies, Cat. No. #41061-029) supplemented with 10% FBS, penicillin and streptomycin). Bone marrow (BM) cells were harvested in a 15 ml clean tube and centrifuged at 400 g for 8 min at RT. Supernatant was discarded and BM pellet was re-suspended in 5 ml Ammonium-Chloride-Potassium (ACK) buffer for 5 minutes at RT to lysis RBC. BM cell suspension was centrifuged at 400 g for 8 min at RT. Supernatant was discarded and BM cell pellet was re-suspended in complete α-MEM growing medium and passed through a 70 μm cell restrainer to eliminate solid contaminates and cellular aggregates. BM cells were seeded in 8 ml of complete α-MEM growing medium supplemented with 100 ng/ml recombinant mouse M-CSF (R&D Systems, Cat. No. #416-ML-050) in 100-mm dishes. BM cells were cultured overnight to get rid of contaminating stromal cells in a humidified incubator with 5% CO2 at 37° C. At the following day, non-adherent cells were collected in a clean 15-ml tube and centrifuged at 400 g for 8 min at RT. Cell pellet was re-suspended in complete α-MEM growing medium and counted using a hemocytometer Neubauer's chamber. Hematopoietic precursor cells were differentiated into BMM in presence of complete α-MEM growing medium supplemented 50 ng/ml M-CSF for 3 days. Finally to polarize BMM towards M2 phenotype, cells were incubated in presence 20 ng/ml of recombinant mouse IL-4 (R&D Systems, Cat. No. #404-ML-010) added to fresh complete α-MEM growing medium supplemented 50 ng/ml M-CSF for 24 h.
At the day of the experiment, BMM-M2 were treated for 24 h with vehicle (DMSO) or compounds of the invention at 1 and 10 μM prepared in fresh complete α-MEM growing medium supplemented 50 ng/ml M-CSF, 20 ng/ml IL-4 and 10 mM L-arginine (Cat. No. #A5006, Sigma Aldrich). At the next day, 70 μl aliquots of each treated culture media (supernatants) were transferred into a clear 96-well plate. Measurements of urea produced by BMM-M2 were performed using the adapted protocol detailed in Example B1. Wells without BMM-M2 containing only treatment media (vehicle) were used to determine the zero cell-derived urea production (blank). All treatments were carried out in triplicates.
The inhibition of urea production was calculated subtracting the absorbance from the blank to the absorbance from all treatments and it was expressed as the percentage of the absorbance from the reaction containing the test article treatment with respect to the absorbance from vehicle treatment (maximum of urea production).

IC50 (recombinant human ARG1) [nM] | IC50 (recombinant human ARG2) [nM] | inhibition at 10 µM [1] [%] | SMILES | Inh. urea production @10 μM (%) [1]
< 500 | 500 to 5000 |  | NC(CCCCB(O)O)(C(=O)O)C1CCN(C2CCCc3ccccc32)CC1 (single isomer, unassigned) [Compound 7, 2-amino-6-borono-2-(1-(1,2,3,4-tetrahydronaphthalen-1-yl)piperidin-4-yl)hexanoic acid] | 
< 500 | < 500 |  | NC(CCCCB(O)O)(C(=O)O)C1CCN(C2CCCc3ccccc32)CC1 (single isomer, unassigned) [Compound 8, 2-amino-6-borono-2-(1-(1,2,3,4-tetrahydronaphthalen-1-yl)piperidin-4-yl)hexanoic acid] | 
< 500 | < 500 |  | NC(CCCCB(O)O)(C(=O)O)C1CCN(C2CCc3cc(F)c(F)cc32)CC1 (single isomer, unassigned) [Compound 19, 2-amino-6-borono-2-[1-(5,6-difluoroindan-1-yl)-4-piperidyl]hexanoic acid] | ++ (25% < % inhibition < 15% at 10 μM test compound)
500 to 5000 | 500 to 5000 |  | NC(CCCCB(O)O)(C(=O)O)C1CCN(C2Cc3ccccc3C2)CC1 (single isomer, unassigned) [Compound 24, 2-amino-6-borono-2-(1-(2,3-dihydro-1H-inden-2-yl)piperidin-4-yl)hexanoic acid] | ++ (25% < % inhibition < 15% at 10 μM test compound)
> 5000 | > 5000 |  | NC(CCCCB(O)O)(C(=O)O)C1CCN(C2Cc3ccccc3C2)CC1 (single isomer, unassigned) [Compound 25, 2-amino-6-borono-2-(1-(2,3-dihydro-1H-inden-2-yl)piperidin-4-yl)hexanoic acid] | 
< 500 | < 500 | < 15 | NC(CCCCB(O)O)(C(=O)O)C1CCN(C2CCc3ccc(C(F)(F)F)cc32)CC1 (single isomer, unassigned) [Compound 35, 2-amino-6-borono-2-[1-[6-(trifluoromethyl)indan-1-yl]-4-piperidyl]hexanoic acid] | 
< 500 | 500 to 5000 |  | NC(CCCCB(O)O)(C(=O)O)C1CCN(C2CCCc3c(Br)cccc32)CC1 (single isomer, unassigned) [Compound 86, 2-amino-6-borono-2-(1-(5-bromo-1,2,3,4-tetrahydronaphthalen-1-yl)piperidin-4-yl)hexanoic acid] | ++ (25% < % inhibition < 15% at 10 μM test compound)
< 500 | < 500 | > 25 | NC(CCCCB(O)O)(C(=O)O)C1CCN(C2CCCc3cc(-c4ccccc4)ccc32)CC1 (single isomer, unassigned) [Compound 87, 2-amino-6-borono-2-(1-(6-phenyl-1,2,3,4-tetrahydronaphthalen-1-yl)piperidin-4-yl)hexanoic acid] | 
< 500 | < 500 | > 25 | NC(CCCCB(O)O)(C(=O)O)C1CCN(C2CCc3ccc(F)cc32)CC1 (single isomer, unassigned) [Compound 88, 2-amino-6-borono-2-(1-(6-fluoro-2,3-dihydro-1H-inden-1-yl)piperidin-4-yl)hexanoic acid] | 
< 500 | 500 to 5000 |  | CC(c1ccc(F)c(Cl)c1)N1CCC(C(N)(CCCCB(O)O)C(=O)O)CC1 (single isomer, unassigned) [Compound 89, 2-amino-6-borono-2-(1-(1-(3-chloro-4-fluorophenyl)ethyl)piperidin-4-yl)hexanoic acid] | ++ (25% < % inhibition < 15% at 10 μM test compound)
500 to 5000 | 500 to 5000 |  | CCCC(c1ccccc1)N1CCC(C(N)(CCCCB(O)O)C(=O)O)CC1 (single isomer, unassigned) [Compound 90, 2-amino-6-borono-2-[1-(1-phenylbutyl)-4-piperidyl]hexanoic acid] | 
> 5000 | > 5000 |  | NC(CCCCB(O)O)(C(=O)O)C1CCN(C2Cc3ccccc3C2)CC1 (stereo not shown) [Compound 23, 2-amino-6-borono-2-(1-(2,3-dihydro-1H-inden-2-yl)piperidin-4-yl)hexanoic acid] | 
